Measured values: ChEMBL document CHEMBL5584338, “Design, Synthesis, and Biological Evaluation of 5-Amino-4-fluoro-1H-benzo[d]imidazole-6-carboxamide Derivatives as Novel and Potential MEK/RAF Complex Inhibitors Based on the "Clamp" Strategy” (J Med Chem, 2024)
The source made the active and inactive calls. The calls are words filed in the database; no cut-off is given here.

Key:
[1] = biological target: T1, Serine/threonine-protein kinase A-Raf (Homo sapiens) (UniProt P10398); assay: Binding affinity to ARAF (unknown origin) at 1 uM by kinase profiling analysis
T1 sequence (whole entry): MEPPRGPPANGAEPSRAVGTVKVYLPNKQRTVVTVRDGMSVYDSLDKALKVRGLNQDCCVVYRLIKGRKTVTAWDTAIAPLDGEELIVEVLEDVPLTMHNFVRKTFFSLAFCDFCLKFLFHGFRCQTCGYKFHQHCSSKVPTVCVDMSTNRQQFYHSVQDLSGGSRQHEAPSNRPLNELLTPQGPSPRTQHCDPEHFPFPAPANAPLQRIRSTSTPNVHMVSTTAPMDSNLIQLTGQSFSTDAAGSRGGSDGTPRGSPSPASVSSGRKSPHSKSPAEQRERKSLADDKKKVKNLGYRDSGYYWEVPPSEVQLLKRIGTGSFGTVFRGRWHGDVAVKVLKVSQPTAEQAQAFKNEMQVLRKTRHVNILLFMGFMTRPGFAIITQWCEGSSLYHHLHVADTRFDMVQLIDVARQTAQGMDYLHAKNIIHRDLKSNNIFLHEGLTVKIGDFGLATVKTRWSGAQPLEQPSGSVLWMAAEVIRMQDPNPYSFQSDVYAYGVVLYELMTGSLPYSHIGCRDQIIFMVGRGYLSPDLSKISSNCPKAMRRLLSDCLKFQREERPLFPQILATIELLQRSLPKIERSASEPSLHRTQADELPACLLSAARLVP

HCT-116 [2] = assay: Induction of cell cycle arrest at G0/G1 phase in human HCT-116 cells at 0.1 to 2.5 uM incubated for 24 hrs by PI/RNase staining based flow cytometry (reference value: 61.35 %); type: functional; conditions: dose 0.1-2.5 µM
MIA PaCa-2 [3] = assay: Induction of apoptosis in human MIA PaCa-2 cells assessed as late apoptotic cells at 0.05 uM incubated for 24 hrs by Annexin V-FITC/PI staining based flow cytometry (reference value: 6.90 %); type: functional
Homo sapiens = species on record: Homo sapiens; assay: Inhibition of BRAF […] mutant (unknown origin) at 1 uM by kinase profiling analysis
HeLa = assay: Antiproliferative activity against human HeLa cells incubated for 72 hrs by CCK8 assay; type: functional, cell-based
[4] = Toxicity in NU/NU mouse xenografted with human HCT-116 cells harboring KRAS G13D mutant assessed as animal death at 15 to 30 mg/kg, iv administered 5 times a week for 16 days; type: organism-based; conditions: in vivo, 384 h, dose 15-30 mg/kg, time 16 day
[5] = biological target: T2, Serine/threonine-protein kinase B-raf (Homo sapiens, UniProt P15056); assay: Inhibition of BRAF (unknown origin) at 1 uM by kinase profiling analysis
T2 sequence (P15056 whole entry): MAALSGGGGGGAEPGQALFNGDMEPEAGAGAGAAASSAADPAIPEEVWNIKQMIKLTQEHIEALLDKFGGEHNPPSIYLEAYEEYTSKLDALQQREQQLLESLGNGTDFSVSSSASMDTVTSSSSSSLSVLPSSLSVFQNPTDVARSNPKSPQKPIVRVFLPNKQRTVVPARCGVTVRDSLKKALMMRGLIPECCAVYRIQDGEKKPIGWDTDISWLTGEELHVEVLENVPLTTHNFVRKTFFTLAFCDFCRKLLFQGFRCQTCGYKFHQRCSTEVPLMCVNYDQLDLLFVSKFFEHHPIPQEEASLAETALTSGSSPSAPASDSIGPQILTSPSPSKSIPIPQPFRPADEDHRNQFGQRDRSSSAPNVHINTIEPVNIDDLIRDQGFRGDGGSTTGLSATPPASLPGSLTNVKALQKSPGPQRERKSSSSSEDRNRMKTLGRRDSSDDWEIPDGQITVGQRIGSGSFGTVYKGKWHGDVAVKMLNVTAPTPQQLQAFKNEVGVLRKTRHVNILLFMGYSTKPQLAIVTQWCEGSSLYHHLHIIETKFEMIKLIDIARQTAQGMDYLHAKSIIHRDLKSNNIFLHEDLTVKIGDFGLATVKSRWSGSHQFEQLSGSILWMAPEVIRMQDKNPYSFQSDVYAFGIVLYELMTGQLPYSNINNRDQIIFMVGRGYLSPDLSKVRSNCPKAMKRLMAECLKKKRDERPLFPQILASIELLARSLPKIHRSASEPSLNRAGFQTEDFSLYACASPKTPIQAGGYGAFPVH

[6] = biological target: T2, Serine/threonine-protein kinase B-raf; assay: Inhibition of BRAF (unknown origin) assessed as remaining activity at 0.1 uM relative to control
[7] = Antitumor activity against mouse C26 cells harboring KRAS G12D mutant xenografted in BALB/c mouse at 30 mg/kg, iv administered 5 times a week for 12 days relative to control; type: functional, C-26; conditions: C26, 288 h, time 12 day, read-out: TGI
MIA PaCa-2 [8] = assay: Induction of apoptosis in human MIA PaCa-2 cells assessed as late apoptotic cells at 0.25 uM incubated for 24 hrs by Annexin V-FITC/PI staining based flow cytometry (reference value: 6.90 %); type: functional
MIA PaCa-2 [9] = assay: Induction of apoptosis in human MIA PaCa-2 cells assessed as increase in cleaved PARP-1 level upto 1 uM incubated for 24 hrs by Western blot analysis; type: functional, cell-based
[10] = Toxicity in NU/NU mouse xenografted with human HCT-116 cells harboring KRAS G13D mutant assessed as body weight change at 15 to 30 mg/kg, iv administered 5 times a week for 16 days; type: organism-based; conditions: in vivo, 384 h, dose 15-30 mg/kg, time 16 day
[11] = Stability in human liver microsomes assessed as half life at 200 uM preincubated for 5 mins followed by NADPH addition measured upto 60 mins by LC-MS/MS analysis; type: ADME, Microsome; conditions: time 65 min
[12] = tested on: Mitogen-activated protein kinase 1/3 (ERK1/2) (Homo sapiens); assay: Inhibition of ERK phosphorylation in human MIA PaCa-2 cells at lower concentration incubated for at least 48 hrs by Western blot analysis
MIA PaCa-2 [13] = assay: Stabilization of MEK1/2/BRAF complex in human MIA PaCa-2 cells at 100 nM incubated for 4 hrs by co-immunoprecipitation method; type: cell-based
[14] = biological target: Dual specificity mitogen-activated protein kinase kinase 2 (Homo sapiens) (UniProt P36507); assay: Binding affinity to MEK2 (unknown origin) at 1 uM by kinase profiling analysis
Chain of Dual specificity mitogen-activated protein kinase kinase 2 (Homo sapiens) (P36507 whole entry): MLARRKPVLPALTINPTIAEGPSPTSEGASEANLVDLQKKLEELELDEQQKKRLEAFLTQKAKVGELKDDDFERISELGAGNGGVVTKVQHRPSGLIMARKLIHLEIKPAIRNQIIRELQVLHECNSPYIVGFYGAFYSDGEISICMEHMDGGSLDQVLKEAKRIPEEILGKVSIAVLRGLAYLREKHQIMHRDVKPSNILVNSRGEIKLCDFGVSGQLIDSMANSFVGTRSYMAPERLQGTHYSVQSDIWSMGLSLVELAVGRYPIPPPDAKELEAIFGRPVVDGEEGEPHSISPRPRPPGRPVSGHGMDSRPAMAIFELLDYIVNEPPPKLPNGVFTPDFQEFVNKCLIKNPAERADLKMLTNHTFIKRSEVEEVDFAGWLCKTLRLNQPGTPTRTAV

HCT-116 [15] = assay: Antitumor activity against human HCT-116 cells harboring KRAS G13D mutant xenografted in NU/NU mouse at 30 mg/kg, iv administered 5 times a week for 16 days relative to control; type: functional; conditions: HCT-116, 384 h, time 16 day, read-out: TGI
HUVEC = assay: Inhibition of cell migration in human HUVEC cells at 0.01 to 1 uM incubated for 24 hrs by wound healing assay; type: functional, cell-based; conditions: dose 0.01-1 µM
MIA PaCa-2 [16] = assay: Induction of apoptosis in human MIA PaCa-2 cells assessed as increase in cleaved caspase-3 level upto 1 uM incubated for 24 hrs by Western blot analysis; type: functional, cell-based
[17] = biological target: T3, Dual specificity mitogen-activated protein kinase kinase 1 (Homo sapiens, UniProt Q02750); assay: Inhibition of MEK1 (unknown origin)
T3 sequence (Q02750 whole entry): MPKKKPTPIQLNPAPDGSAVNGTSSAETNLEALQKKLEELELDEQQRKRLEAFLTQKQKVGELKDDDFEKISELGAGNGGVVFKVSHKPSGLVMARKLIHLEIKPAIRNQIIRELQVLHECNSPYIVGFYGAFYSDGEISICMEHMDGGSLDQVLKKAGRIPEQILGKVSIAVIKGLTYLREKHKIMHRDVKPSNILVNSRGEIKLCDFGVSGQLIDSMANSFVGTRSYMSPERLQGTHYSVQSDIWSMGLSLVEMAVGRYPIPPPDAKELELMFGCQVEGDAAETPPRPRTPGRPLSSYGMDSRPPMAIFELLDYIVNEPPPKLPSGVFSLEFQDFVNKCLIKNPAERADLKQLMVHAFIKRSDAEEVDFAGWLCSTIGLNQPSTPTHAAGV

[18] = biological target: T2, Serine/threonine-protein kinase B-raf; assay: Inhibition of BRAF (unknown origin)
MIA PaCa-2 [19] = assay: Inhibition of MEK1/2/BRAF complex in human MIA PaCa-2 cells at 100 nM incubated for 4 hrs by co-immunoprecipitation method; type: cell-based
MIA PaCa-2 [20] = assay: Antiproliferative activity against human MIA PaCa-2 cells harboring KRAS G12C mutant at 0.1 uM incubated for 72 hrs by CCK8 assay relative to control; type: functional
HCT-116 [21] = assay: Antitumor activity against human HCT-116 cells harboring KRAS G13D mutant xenografted in NU/NU mouse assessed as tumor growth inhibition administered intravenously 5 times a week for 16 days; type: functional, cell-based; conditions: dose 15-30 mg/kg, route iv, time 16.0 day
[22] = biological target: Dual specificity mitogen-activated protein kinase kinase; MEK1/2 (Homo sapiens) (UniProt P36507+Q02750); assay: Inhibition of MEK phosphorylation in human MIA PaCa-2 cells upto 1 uM incubated for 4 hrs by Western blot analysis; type: cell-based
Chain of Dual specificity mitogen-activated protein kinase kinase; MEK1/2 (Homo sapiens) (P36507 whole entry, looked up): as the sequence (P36507 whole entry) above
Chain of Dual specificity mitogen-activated protein kinase kinase; MEK1/2 (Homo sapiens) (Q02750 whole entry, looked up): as the sequence (Q02750 whole entry) above

[23] = biological target: RAF proto-oncogene serine/threonine-protein kinase (Homo sapiens) (UniProt P04049); assay: Binding affinity to CRAF (unknown origin) at 1 uM by kinase profiling analysis
Chain of RAF proto-oncogene serine/threonine-protein kinase (Homo sapiens) (P04049 whole entry): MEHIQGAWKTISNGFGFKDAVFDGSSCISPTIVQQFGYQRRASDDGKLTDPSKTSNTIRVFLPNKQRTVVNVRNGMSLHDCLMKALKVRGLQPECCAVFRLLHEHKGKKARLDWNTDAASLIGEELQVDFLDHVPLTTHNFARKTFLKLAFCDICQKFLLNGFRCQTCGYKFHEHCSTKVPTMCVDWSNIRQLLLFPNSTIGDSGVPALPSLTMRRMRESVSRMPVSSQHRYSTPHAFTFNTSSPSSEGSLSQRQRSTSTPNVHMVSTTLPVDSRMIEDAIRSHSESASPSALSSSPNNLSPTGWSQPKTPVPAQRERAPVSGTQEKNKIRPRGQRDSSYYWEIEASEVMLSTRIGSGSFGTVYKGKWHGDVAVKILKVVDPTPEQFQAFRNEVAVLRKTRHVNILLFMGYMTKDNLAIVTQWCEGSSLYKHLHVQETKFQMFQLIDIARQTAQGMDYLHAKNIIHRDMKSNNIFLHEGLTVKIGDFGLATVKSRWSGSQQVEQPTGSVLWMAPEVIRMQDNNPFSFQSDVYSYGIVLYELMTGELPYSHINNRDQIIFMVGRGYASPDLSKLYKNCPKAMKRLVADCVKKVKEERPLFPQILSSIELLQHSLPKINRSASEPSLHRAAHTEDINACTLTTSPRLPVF

[24] = tested on: Mitogen-activated protein kinase 1/3 (ERK1/2) (Homo sapiens); assay: Inhibition of ERK phosphorylation in human MIA PaCa-2 cells upto 1 uM incubated for 4 hrs by Western blot analysis
HCT-116 [25] = assay: Inhibition of colony formation in human HCT-116 cells incubated for 10 days by crystal violet staining based analysis; type: functional, cell-based; conditions: dose 0.1-10 µM, time 10.0 day
[26] = biological target: T3, Dual specificity mitogen-activated protein kinase kinase 1; assay: Inhibition of MEK1 (unknown origin) assessed as remaining activity at 0.1 uM relative to control
[27] = Cmax in Sprague-Dawley rat at 5 mg/kg, iv; type: ADME, organism-based; conditions: in vivo

CCNS(=O)(=O)Nc1cccc(Cn2cnc3c(F)c(Nc4ccc(C5CC5)cc4F)c(C(=O)NOCCO)cc32)c1F
Activity [1]: Active
Activity (HCT-116 [2]): 79.63%
Activity (MIA PaCa-2 [3]): 6.59%
inhibition (Homo sapiens): Active
IC50 (HeLa): > 10 µM
Activity [4]: Non-Toxic
inhibition [5]: Active
Activity [6]: -3%
inhibition in vivo at 30 mg/kg [7]: 70%
Activity (MIA PaCa-2 [8]): 7.36%
Activity (MIA PaCa-2 [9]): Active
Activity [10]: Non-Toxic
half-life at 200 µM [11]: 58.7 min
inhibition [12]: Active
Activity (MIA PaCa-2 [13]): Active
Activity [14]: Active
inhibition in vivo at 30 mg/kg (HCT-116 [15]): 93%
inhibition (HUVEC): Active
Activity (MIA PaCa-2 [16]): Active
IC50 [17]: 0.028 µM
IC50 [18]: 0.003 µM
inhibition (MIA PaCa-2 [19]): Active
inhibition at 0.1 µM (MIA PaCa-2 [20]): 85%
inhibition (HCT-116 [21]): Active
inhibition [22]: Active
Activity [23]: Active
inhibition [24]: Active
inhibition (HCT-116 [25]): Dose-Dependent Effect
Activity [26]: 25%
Cmax [27]: 0.603 µg/mL
